This note sets out measurements from patent publication EP4553077A1 (Kinoteck Therapeutics Co., Ltd, priority 2022, dated 2024).

The target of the assay is Ba/F3-TEL-FGFR2 (Homo sapiens, UniProt P21802+P41212). Put plainly: Cell viability (proliferation inhibition) of Ba/F3 cells, CellTiter Glo. The note with it: read-out: Ba/F3 cell FGFR2 (IC50 nM), 72 h. A general note: ATP-based viability assays read luminescence as a measure of living cells.
Ba/F3-TEL-FGFR2, sequence (P21802 481-770 limits assumed, one chain of several): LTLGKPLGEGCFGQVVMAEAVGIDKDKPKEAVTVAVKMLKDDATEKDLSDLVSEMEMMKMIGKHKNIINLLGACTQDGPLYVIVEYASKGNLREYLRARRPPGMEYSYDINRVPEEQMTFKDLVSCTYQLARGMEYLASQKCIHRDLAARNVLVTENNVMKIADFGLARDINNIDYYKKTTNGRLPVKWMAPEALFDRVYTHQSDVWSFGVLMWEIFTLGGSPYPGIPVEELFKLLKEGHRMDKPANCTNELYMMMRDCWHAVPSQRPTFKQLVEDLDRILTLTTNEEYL
Consider `C=C(C)C(=O)N1CC=C(c2c(-c3ccc(N=S4(=O)CCCCC4)cc3)c3c(N)ncnc3n2C)CC1` [Compound 3, 1-(4-(4-amino-7-methyl-5-(4-(1-oxotetrahydro-2H-1λ^6-thiopyran-1-imino)phenyl)-7H-pyrrolo[2,3-d]pyrimidin-6-yl)-3,6-dihydropyridine-1(2H)-yl)2-methylprop-2-enyl-1-one], for which the IC50 worked out at 700 nM.
The result for `C=C(C)C(=O)Nc1ccc(-c2c(-c3ccc(N=S4(=O)CCCCC4)c(OC)c3)c3c(N)ncnc3n2C)c(F)c1` [Compound 5, N-(4-(4-amino-5-(3-methoxy-4-(1-oxotetrahydro-2H-1λ^6-thiopyran-1-imino)phenyl)-7-methyl-7H-pyrrolo [2,3-d]pyrimidin-6-yl)-3-fluorophenyl) methacrylamide] reads 29.3 nM; that for `C=C(C)C(=O)Nc1ccc(-c2c(-c3ccc(N=S4(=O)CCC(F)(F)CC4)cc3)c3c(N)ncnc3n2C)c(F)c1` [Compound 6, N-(4-(4-amino-5-(4-(4,4-difluoro-1-oxotetrahydro-2H-λ^6-thiopyran-1-imino)phenyl) -7-methyl-7H-pyrrolo [2,3-d]pyrimidin-6-yl) -3-fluorophenyl) methacrylamide], 9.3 nM; that for `C=C(C)C(=O)Nc1ccc(-c2c(-c3ccc(N=S4(=O)CC(OC)(OC)C4)c(F)c3)c3c(N)ncnc3n2C)cc1` [Compound 10], 107 nM.
The result for `C=C(C)C(=O)Nc1ccc(-c2c(-c3ccc(N=S4(=O)CC5(COC5)C4)c(F)c3)c3c(N)ncnc3n2C)cc1` [Compound 11] reads 172 nM; that for `C=C(C)C(=O)Nc1ccc(F)c(-c2c(-c3ccc(N=S4(=O)CCCCC4)c(F)c3)c3c(N)ncnc3n2C)c1` [Compound 12, N-(3-(4-amino-5-(3-fluoro-4-((1-oxotetrahydro-2H-1 λ^6-thiopyran-1-ylidene)amino)phenyl) -7-methyl-7H-pyrrolo [2,3-d]pyrimidin-6-yl) -4-fluorophenyl) methacrylamide], 276 nM.
The result for `C=CC(=O)Nc1ccc(-c2c(-c3ccc(N=S4(=O)CCCCC4)c(F)c3)c3c(N)ncnc3n2C)cc1` [Compound 13, N-(4-(4-amino-5-(3-fluoro-4-((1-oxotetrahydro-2H-1 λ^6-thiopyran-1-ylidene)amino)phenyl) -7-methyl-7H-pyrrolo [2,3-d]pyrimidin-6-yl)phenyl) acrylamide] reads 0.6 nM.
For `C=C(C)C(=O)Nc1ccc(-c2c(-c3ccc(N=S4(=O)CCCCC4)c(F)c3)c3c(N)ncnc3n2C)c(OC)c1` [Compound 14, N-(4-(4-amino-5-(3-fluoro-4-((1-oxotetrahydro-2H-1 λ^6-thiopyran-1-ylidene)amino)phenyl)-7-methyl-7H-pyrrolo[2,3-d]pyrimidin-6-yl)-3-methoxyphenyl) methacrylamide], the IC50 is 9.9 nM.
As for `C/C=C/C(=O)Nc1ccc(-c2c(-c3ccc(N=S4(=O)CCCCC4)c(F)c3)c3c(N)ncnc3n2C)cc1` [Compound 15, (E)-N-(4-(4-amino-5-(3-fluoro-4-((1-oxotetrahydro-2H-1λ^6-thiopyran-1-ylidene)amino)phenyl)-7-methyl-7H-pyrrolo [2,3-d]pyrimidin-6-yl) -phenyl)-2-butenamide], the figure is 15.4 nM; as for `CN(C)C/C=C/C(=O)Nc1ccc(-c2c(-c3ccc(N=S4(=O)CCCCC4)c(F)c3)c3c(N)ncnc3n2C)cc1` [Compound 16, (E)-N-(4-(4-amino-5-(3-fluoro-4-((1-oxotetrahydro-2H-1 λ^6-thiopyran-1-ylidene)amino)phenyl) -7-methyl-7H-pyrrolo [2,3-d]pyrimidin-6-yl) - phenyl) -4-(dimethylamino) -2-butenamide], 50.1 nM.
Consider `C=C(C)C(=O)Nc1ccc(-c2c(-c3ccc(N=S4(=O)CCCCC4)nc3)c3c(N)ncnc3n2C)cc1` [Compound 17, N-[4-(4-amino-7-methyl-5-(6-((1-oxotetrahydro-2H-1 λ^6-thiopyran-1-ylidene)amino)pyridin-3-yl)pyrrolo [2,3-d]pyrimidin-6-yl)phenyl) methacrylamide], for which the IC50 came out at 4620 nM.
As to `C=C(COC)C(=O)Nc1ccc(-c2c(-c3ccc(N=S4(=O)CCCC4)c(F)c3)c3c(N)ncnc3n2C)cc1` [Compound 18, N-(4-(4-amino-5-(3-fluoro-4-((1-oxotetrahydro-1 λ^6-thiophene-1-ylidene)amino)phenyl) -7-methyl-7H-pyrrolo [2,3-d]pyrimidin-6-yl)phenyl) -2-(methoxymethyl) acrylamide], the IC50 amounted to 21.5 nM.
As for `CC#CC1=Nc2ccc(-c3c(-c4ccc(N=S(C)(C)=O)c(F)c4)c4c(N)ncnc4n3C)cc2C(C)(C)O1` [Compound 19], the figure is 2980 nM.
As for `CC#CC(=O)Nc1ccc(-c2c(-c3ccc(N=S(C)(C)=O)c(F)c3)c3c(N)ncnc3n2C)cc1C(C)(C)O` [Compound 20], the figure is 86.7 nM; as for `C=C(C)C(=O)Nc1ccc(-c2c(-c3ccc(N=S4(=O)CCCC4)c(F)c3)c3c(N)ncnc3n2C)c(C#N)c1` [Compound 25, N-(4-(4-amino-5-(3-fluoro-4-((1-oxotetrahydro-1 λ^6-thiophene-1-ylidene)amino)phenyl) -7-methyl-7H-pyrrolo [2,3-d]pyrimidin-6-yl) -3-cyanophenyl) methacrylamide], 38.7 nM; as for `C=C(C)C(=O)Nc1ccc(-c2c(-c3cc(F)c(N=S4(=O)CCCC4)c(F)c3)c3c(N)ncnc3n2C)cc1` [Compound 27, N-(4-(4-amino-5-(3,5-difluoro-4-((1-oxotetrahydro-1 λ^6-thiophene-1-ylidene)amino)phenyl) -7-methyl-7H-pyrrolo [2,3-d]pyrimidin-6-yl)phenyl) methacrylamide], 26 nM.
The result for `C=C(C)C(=O)Nc1ccc(-c2c(-c3ccc(N=S(=O)(N(C)C)C(F)(F)F)cc3)c3c(N)ncnc3n2C)cc1` (stereo not drawn) [Compound 28] reads 0.9 nM.
For the molecule `C=C(C)C(=O)Nc1ccc(-c2c(-c3ccc(N=S4(=O)CCN(C)CC4)c(F)c3)c3c(N)ncnc3n2C)cc1` [Compound 30, N-(4-(4-amino-5-(3-fluoro-4-((4-methyl-1-oxo-1 λ^6-thiomorpholin-1-ylidene)amino)phenyl) -7-methyl-7H-pyrrolo [2,3-d]pyrimidin-6-yl)phenyl) methacrylamide], the IC50 stood at 1440 nM.
As to `C=C(C)C(=O)Nc1ccc(-c2c(-c3ccc(N=S4(=O)CCCCC4)c(C)c3)c3c(N)ncnc3n2C)cc1` [Compound 34, N-(4-(4-amino-7-methyl-5-(3-methyl-4-((1-oxotetrahydro-2H-1λ^6-thiopyran-1-ylidene)amino)phenyl) -7H-pyrrolo [2,3-d]pyrimidin-6-yl)phenyl) methacrylamide], the IC50 came to 17.9 nM.
Regarding `C=C(C)C(=O)Nc1ccc(-c2c(-c3ncc(N=S4(=O)CCCCC4)cc3F)c3c(N)ncnc3n2C)cc1` [Compound 36, N-(4-(4-amino-5-(3-fluoro-5-((1-oxotetrahydro-2H-1 λ^6-thiopyran-1-ylidene)amino)pyridin-2-yl) -7-methyl-7H-pyrrole [2,3-d]pyrimidin-6-yl)phenyl) methacrylamide], the IC50 is 53.5 nM.
The result for `C=C(C)C(=O)Nc1ccc(-c2c(-c3ccc(N=S4(=O)CCCCC4)c(F)c3)c3c(N)ncnc3n2C)cc1F` [Compound 37, N-(4-(4-amino-5-(3-fluoro-4-((1-oxotetrahydro-2H-1 λ^6-thiopyran-1-ylidene)amino)phenyl) -7-methyl-7H-pyrrolo [2,3-d]pyrimidin-6-yl) -2-fluorophenyl) methacrylamide] reads 32 nM; that for `C=C(C)C(=O)Nc1cc(-c2c(-c3ccc(N=S4(=O)CCCCC4)c(F)c3)c3c(N)ncnc3n2C)ccc1F` [Compound 38, N-(5-(4-amino-5-(3-fluoro-4-((1-oxotetrahydro-2H-1 λ^6-thiopyran-1-ylidene)amino)phenyl) -7-methyl-7H-pyrrolo [2,3-d]pyrimidin-6-yl) -2-fluorophenyl) methacrylamide], 247 nM.
As for `C=C(C)C(=O)Nc1ccc(F)c(-c2c(-c3ccc(N=S(=O)(N(C)C)C(F)(F)F)cc3)c3c(N)ncnc3n2C)c1` (stereo not drawn) [Compound 39], the figure is 10.2 nM.
As for `C=C(C)C(=O)Nc1ccc(-c2c(-c3ccc(N=S4(=O)CCCCC4)c(Cl)c3)c3c(N)ncnc3n2C)cc1` [Compound 40, N-(4-(4-amino-5-(3-chloro-4-((1-oxotetrahydro-2H-1λ^6 - thiopyran-1-ylidene)amino)phenyl) -7-methyl-7H-pyrrolo [2,3-d]pyrimidin-6-yl)phenyl) methacrylamide], the figure is 7.7 nM; as for `C=C(C)C(=O)Nc1ccc(-c2c(-c3ccc(N=S4(=O)CCOCC4)c(F)c3)c3c(N)ncnc3n2C)cc1` [Compound 41], 124 nM.
Take `C=C(C)C(=O)Nc1ccc(-c2c(-c3ccc(N=S(C)(C)=O)c(F)c3)c3c(N)ncnc3n2C)c(F)c1` [Compound 42]: the IC50 was 32.9 nM.
The result for `C=C(C)C(=O)Nc1ccc(-c2c(-c3ccc(N=S4(=O)CCCCC4)cc3F)c3c(N)ncnc3n2C)cc1` [Compound 43, N-(4-(4-amino-5-(2-fluoro-4-((1-oxotetrahydro-2H-1λ^6-thiopyran-1-ylidene)amino)phenyl) -7-methyl-7H-pyrrolo [2,3-d]pyrimidin-6-yl)phenyl) methacrylamide] reads 14.2 nM; that for `C=C(C)C(=O)Nc1ccc(-c2c(-c3ccc(N=S(C)(C)=O)c(F)c3)c3c(N)ncnc3n2C)cc1` [Compound 44], 216 nM; that for `C=C(C)C(=O)Nc1ccc(-c2c(-c3ccc(N=S(C)(C)=O)cc3)c3c(N)ncnc3n2C)cc1` [Compound 45], 83.1 nM.
The result for `C=C(C)C(=O)N(C)c1ccc(-c2c(-c3ccc(N=S4(=O)CCCCC4)c(F)c3)c3c(N)ncnc3n2C)cc1` [Compound 46, N-(4-(4-amino-5-(3-fluoro-4-((1-oxotetrahydro 2H-1λ^6 - thiopyran-1-ylidene)amino)phenyl) -7-methyl-7H-pyrrolo [2,3-d]pyrimidin-6-yl)phenyl) - N-methylmethacrylamide] reads 162 nM.
